The results in this text go back to ChEMBL document CHEMBL5291721, “A preclinical secondary pharmacology resource illuminates target-adverse drug reaction associations of marketed drugs” (Nat Commun, 2023).

Test [1] deals with T1, Estrogen receptor (Homo sapiens, UniProt P03372).
T1 sequence (P03372 whole entry): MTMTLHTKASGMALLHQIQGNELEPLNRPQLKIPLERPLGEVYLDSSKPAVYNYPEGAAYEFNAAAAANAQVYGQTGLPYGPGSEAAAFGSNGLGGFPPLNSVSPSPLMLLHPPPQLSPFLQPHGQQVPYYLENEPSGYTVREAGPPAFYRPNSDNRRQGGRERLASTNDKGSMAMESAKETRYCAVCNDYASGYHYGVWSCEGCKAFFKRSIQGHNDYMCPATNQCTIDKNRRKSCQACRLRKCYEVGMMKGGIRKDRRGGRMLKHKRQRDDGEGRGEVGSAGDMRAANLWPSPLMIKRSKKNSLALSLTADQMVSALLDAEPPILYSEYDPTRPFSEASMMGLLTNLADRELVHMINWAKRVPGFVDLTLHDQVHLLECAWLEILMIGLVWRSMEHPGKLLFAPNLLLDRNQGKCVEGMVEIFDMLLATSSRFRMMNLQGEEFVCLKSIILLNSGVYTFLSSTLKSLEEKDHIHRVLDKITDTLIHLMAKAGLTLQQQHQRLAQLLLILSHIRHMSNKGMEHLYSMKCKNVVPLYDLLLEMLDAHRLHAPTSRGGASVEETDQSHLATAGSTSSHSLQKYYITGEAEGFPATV

The target in test [2] is T2, Peroxisome proliferator-activated receptor gamma (Homo sapiens, UniProt P37231).
T2 sequence (P37231 whole entry): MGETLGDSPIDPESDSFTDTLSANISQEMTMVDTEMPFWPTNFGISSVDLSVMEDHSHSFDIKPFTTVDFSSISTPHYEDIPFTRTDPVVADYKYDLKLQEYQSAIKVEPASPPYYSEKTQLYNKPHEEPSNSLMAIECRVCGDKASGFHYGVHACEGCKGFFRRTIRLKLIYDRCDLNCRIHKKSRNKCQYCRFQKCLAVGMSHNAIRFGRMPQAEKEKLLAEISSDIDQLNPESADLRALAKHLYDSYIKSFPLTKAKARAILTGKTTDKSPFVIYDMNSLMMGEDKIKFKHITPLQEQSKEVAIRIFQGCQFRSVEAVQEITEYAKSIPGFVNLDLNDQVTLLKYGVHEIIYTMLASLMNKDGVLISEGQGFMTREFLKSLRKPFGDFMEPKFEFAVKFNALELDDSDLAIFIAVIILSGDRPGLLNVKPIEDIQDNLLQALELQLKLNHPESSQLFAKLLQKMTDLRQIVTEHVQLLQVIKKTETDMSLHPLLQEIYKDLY
The test is classed as functional.

Test [3] has as its target T3, Gamma-aminobutyric acid receptor subunit alpha-1/alpha-2/beta-2/gamma-2 (Homo sapiens, UniProt P14867+P18507+P47869+P47870). The test is classed as functional, cell-based.
The target in test [4] is T3, Gamma-aminobutyric acid receptor subunit alpha-1/alpha-2/beta-2/gamma-2. The test is classed as functional, cell-based. This is another data set of the same source.
The target in test [5] is Mu-type opioid receptor (Homo sapiens, UniProt P35372). Description: biochemical. The test is classed as functional.
The target of test [6] is T2, Peroxisome proliferator-activated receptor gamma. The test is classed as functional. The source holds these as a separate data set.
In test [7] the target is T3, Gamma-aminobutyric acid receptor subunit alpha-1/alpha-2/beta-2/gamma-2. The class given is protein-complex assay.
For test [8], the target named is Gamma-aminobutyric acid receptor subunit alpha-1 (Rattus norvegicus, UniProt P62813).
Test [9] deals with Sodium channel protein type 5 subunit alpha (Homo sapiens, UniProt Q14524). The test is classed as functional, cell-based.

Molecules are shown by their SMILES.

Mu-type opioid receptor, sequence (P35372 whole entry): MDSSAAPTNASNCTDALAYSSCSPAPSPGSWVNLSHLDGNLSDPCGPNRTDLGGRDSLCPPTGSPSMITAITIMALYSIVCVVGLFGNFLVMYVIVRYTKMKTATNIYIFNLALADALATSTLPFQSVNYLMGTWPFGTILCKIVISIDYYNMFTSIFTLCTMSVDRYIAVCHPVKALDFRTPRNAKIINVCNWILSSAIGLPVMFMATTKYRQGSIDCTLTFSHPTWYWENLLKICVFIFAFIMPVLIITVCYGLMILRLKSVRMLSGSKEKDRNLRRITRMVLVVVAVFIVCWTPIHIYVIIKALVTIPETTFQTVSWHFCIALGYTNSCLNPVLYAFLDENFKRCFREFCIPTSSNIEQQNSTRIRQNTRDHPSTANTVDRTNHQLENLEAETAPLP
Gamma-aminobutyric acid receptor subunit alpha-1, sequence (P62813 whole entry): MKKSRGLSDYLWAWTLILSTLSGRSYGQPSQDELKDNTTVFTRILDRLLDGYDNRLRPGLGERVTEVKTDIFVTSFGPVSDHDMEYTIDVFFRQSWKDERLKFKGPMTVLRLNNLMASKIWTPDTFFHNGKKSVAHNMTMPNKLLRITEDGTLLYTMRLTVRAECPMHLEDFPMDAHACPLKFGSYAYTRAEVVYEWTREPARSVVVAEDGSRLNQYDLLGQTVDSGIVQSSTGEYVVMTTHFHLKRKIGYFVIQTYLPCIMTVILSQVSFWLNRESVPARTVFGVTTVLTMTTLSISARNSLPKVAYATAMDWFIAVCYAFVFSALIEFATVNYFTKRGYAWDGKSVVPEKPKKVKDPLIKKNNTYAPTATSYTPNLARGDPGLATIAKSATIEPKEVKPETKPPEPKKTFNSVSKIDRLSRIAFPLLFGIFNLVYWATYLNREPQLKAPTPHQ
T3 sequence (P14867 whole entry): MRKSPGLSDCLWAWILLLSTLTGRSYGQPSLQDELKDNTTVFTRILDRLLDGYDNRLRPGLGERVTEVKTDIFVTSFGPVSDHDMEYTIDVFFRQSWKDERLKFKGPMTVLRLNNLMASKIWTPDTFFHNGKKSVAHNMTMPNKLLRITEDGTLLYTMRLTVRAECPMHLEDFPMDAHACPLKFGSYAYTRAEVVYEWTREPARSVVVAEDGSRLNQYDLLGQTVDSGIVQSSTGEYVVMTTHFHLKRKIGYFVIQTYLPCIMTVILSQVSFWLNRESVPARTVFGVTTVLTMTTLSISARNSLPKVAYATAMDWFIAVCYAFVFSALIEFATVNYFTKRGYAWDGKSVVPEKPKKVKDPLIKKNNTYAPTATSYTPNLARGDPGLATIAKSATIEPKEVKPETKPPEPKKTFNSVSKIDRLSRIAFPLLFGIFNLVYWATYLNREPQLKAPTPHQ
T3 sequence (P47870 whole entry): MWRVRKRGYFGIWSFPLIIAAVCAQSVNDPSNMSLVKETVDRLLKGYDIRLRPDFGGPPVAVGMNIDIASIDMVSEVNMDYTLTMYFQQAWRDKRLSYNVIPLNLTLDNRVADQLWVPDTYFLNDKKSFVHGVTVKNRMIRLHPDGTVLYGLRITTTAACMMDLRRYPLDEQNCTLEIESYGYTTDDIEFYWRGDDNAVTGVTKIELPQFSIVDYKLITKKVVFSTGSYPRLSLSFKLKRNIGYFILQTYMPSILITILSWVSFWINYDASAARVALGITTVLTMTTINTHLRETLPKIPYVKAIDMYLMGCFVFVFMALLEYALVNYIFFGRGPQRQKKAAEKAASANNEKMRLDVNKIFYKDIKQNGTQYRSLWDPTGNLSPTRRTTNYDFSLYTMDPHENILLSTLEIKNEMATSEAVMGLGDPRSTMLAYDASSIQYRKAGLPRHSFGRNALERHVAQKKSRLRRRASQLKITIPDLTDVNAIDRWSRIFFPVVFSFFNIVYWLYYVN
T3 sequence (P18507 whole entry): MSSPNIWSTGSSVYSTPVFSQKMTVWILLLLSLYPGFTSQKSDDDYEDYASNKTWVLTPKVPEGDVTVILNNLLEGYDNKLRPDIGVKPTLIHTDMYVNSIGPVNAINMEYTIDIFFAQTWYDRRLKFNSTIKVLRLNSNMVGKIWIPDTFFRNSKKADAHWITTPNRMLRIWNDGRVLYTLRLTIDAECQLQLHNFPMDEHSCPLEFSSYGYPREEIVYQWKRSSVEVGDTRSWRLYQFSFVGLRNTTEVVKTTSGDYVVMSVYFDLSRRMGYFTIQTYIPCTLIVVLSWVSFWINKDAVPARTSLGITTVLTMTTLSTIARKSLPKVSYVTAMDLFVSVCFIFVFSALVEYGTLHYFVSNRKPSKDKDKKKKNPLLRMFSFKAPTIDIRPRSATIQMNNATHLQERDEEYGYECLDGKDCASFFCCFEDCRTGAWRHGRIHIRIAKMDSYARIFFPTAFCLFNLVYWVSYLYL
T3 sequence (P47869 whole entry): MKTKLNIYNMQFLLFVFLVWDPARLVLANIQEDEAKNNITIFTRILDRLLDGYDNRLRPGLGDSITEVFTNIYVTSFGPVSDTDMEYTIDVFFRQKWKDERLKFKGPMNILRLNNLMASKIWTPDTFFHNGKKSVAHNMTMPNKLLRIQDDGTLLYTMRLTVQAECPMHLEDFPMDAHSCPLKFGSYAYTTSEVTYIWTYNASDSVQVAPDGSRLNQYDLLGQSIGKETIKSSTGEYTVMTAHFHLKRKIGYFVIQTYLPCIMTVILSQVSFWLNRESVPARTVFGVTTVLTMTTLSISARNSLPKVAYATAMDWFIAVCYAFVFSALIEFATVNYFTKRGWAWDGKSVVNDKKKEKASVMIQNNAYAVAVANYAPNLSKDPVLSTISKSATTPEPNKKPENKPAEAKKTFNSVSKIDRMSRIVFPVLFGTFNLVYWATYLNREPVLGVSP
Sodium channel protein type 5 subunit alpha, sequence (Q14524 whole entry): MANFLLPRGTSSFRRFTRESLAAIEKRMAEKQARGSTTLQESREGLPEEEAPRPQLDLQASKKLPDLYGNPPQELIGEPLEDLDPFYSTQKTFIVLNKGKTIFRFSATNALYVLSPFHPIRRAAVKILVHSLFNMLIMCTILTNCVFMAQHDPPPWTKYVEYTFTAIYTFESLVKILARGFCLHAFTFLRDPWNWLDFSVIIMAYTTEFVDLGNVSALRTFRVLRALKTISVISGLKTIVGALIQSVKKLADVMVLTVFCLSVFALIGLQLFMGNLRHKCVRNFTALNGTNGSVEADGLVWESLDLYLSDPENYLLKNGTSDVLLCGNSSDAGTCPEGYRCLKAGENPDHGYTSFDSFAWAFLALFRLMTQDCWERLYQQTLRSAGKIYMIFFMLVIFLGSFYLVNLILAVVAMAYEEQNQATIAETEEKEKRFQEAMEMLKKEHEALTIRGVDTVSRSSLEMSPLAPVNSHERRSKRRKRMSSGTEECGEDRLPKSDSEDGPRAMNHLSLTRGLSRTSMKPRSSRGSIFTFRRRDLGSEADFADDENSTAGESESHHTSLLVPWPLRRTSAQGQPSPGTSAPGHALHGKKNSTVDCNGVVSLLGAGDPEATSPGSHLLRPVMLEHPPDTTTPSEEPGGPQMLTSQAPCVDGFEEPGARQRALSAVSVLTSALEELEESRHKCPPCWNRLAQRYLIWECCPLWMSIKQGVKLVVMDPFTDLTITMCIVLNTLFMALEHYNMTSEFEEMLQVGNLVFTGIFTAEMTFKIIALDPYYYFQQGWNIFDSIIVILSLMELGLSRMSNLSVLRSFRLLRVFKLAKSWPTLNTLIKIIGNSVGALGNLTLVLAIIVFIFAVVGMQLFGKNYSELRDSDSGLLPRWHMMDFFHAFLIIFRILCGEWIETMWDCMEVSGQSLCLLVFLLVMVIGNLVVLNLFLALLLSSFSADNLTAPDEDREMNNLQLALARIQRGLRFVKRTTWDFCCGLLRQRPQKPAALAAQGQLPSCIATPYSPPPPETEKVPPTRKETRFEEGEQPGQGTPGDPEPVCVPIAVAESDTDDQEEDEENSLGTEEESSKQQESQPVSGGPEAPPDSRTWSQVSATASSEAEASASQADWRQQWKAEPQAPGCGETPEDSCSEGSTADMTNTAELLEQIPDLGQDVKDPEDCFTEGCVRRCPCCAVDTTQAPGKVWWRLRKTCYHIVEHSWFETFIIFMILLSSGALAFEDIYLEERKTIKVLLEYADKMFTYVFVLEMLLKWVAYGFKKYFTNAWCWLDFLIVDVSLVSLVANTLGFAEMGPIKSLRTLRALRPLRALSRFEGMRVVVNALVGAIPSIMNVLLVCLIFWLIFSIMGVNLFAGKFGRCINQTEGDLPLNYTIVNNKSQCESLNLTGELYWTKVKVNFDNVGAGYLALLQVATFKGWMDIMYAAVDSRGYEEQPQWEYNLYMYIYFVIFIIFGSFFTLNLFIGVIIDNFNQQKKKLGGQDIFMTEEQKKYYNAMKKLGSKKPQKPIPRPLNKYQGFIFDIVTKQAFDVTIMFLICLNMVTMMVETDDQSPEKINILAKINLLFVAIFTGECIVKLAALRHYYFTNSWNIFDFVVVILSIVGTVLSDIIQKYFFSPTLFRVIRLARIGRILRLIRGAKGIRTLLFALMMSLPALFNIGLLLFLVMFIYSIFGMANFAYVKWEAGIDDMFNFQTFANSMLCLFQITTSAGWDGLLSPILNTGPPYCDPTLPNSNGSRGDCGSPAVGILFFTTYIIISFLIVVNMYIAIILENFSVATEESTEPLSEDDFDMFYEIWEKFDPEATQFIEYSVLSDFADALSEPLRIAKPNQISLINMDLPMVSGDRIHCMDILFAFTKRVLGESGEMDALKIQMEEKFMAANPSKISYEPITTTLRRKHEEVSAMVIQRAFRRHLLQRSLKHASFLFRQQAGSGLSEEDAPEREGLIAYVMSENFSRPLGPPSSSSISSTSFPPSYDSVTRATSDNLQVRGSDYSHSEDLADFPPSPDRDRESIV

Take `C=CC1=C(C(=O)O)N2C(=O)[C@@H](NC(=O)/C(=N\O)c3csc(N)n3)[C@H]2SC1`: the concentration at half-maximal activity (AC50) in [1] was above 30 µM.
With `CN(C)CCOC(c1ccc(Cl)cc1)c1ccccn1` (stereo unspecified) [CARBINOXAMINE], the AC50 in test [2], in [3], in test [4], in test [5], in [1] and in test [6] was above 30 µM in each case.
In turn, `COC(=O)CCc1ccc(OCC(O)CNC(C)C)cc1` (stereo unspecified) [ESMOLOL] gave an AC50 in test [5] above 30 µM.
Turning to `CC(C)C[C@H](NC(=O)[C@H](Cc1ccccc1)NC(=O)c1cnccn1)B(O)O` [BORTEZOMIB], the AC50 in [5] and in test [1] was above 30 µM throughout.
The molecule `O=c1[nH]c2ccccc2n1CCN1CCN(c2cccc(C(F)(F)F)c2)CC1` [FLIBANSERIN] came in with an AC50 in [7] above 10 µM.
The same measure, in the same setting: then `NC(=O)C1(N2CCCCC2)CCN(CCCC(=O)c2ccc(F)cc2)CC1` [PIPAMPERONE], with above 30 µM.
`O=NN(CCCl)C(=O)NC1CCCCC1` [LOMUSTINE] returned a concentration at half-maximal activity (AC50) in test [8] above 30 µM.
The same measure, in the same setting: then `COc1cccc2c1C(=O)c1c(O)c3c(c(O)c1C2=O)C[C@@](O)(C(=O)CO)C[C@@H]3O[C@H]1C[C@H](N)[C@H](O[C@@H]2CCCCO2)[C@H](C)O1` [PIRARUBICIN], with above 30 µM; and `CCCCCCCCCCCCCCCC(=O)OC[C@H](COP(=O)([O-])OCC[N+](C)(C)C)OC(=O)CCCCCCCCCCCCCCC` [COLFOSCERIL PALMITATE], with above 30 µM; and `N=C(N)NCC1COc2ccccc2O1` (stereo unspecified) [GUANOXAN], with above 30 µM.
`CCN(CC)CCn1c(=O)c(Cc2ccc(OC)cc2)nc2ccccc21` [CAROVERINE]: the AC50 in test [5] and in [1] was above 30 µM in each case.
In the case of `CN(C)CCN(Cc1ccccc1)c1ccccn1` [TRIPELENNAMINE], the half-maximal activity concentration (AC50) was above 30 µM in test [8] and above 10 µM in [1].
The molecule `Cc1cccc(C)c1NC(=O)c1cc(S(N)(=O)=O)c(Cl)cc1O` [XIPAMIDE] gave an AC50 in test [7] above 30 µM.
Consider `C=CCOc1ccc(CC(=O)O)cc1Cl` [ALCLOFENAC], for which the half-maximal activity concentration (AC50) in test [8] is above 30 µM.
For the molecule `CN1CCN(C(c2ccccc2)c2ccc(Cl)cc2)CC1` (stereo unspecified) [CHLORCYCLIZINE], the AC50 in [7] was above 30 µM.
`O=c1[nH]cc(F)c(=O)[nH]1` [FLUOROURACIL] yielded a concentration at half-maximal activity (AC50) in test [8] above 30 µM.
In test [1], `NCCCCCC(=O)O` [AMINOCAPROIC ACID] returned a concentration at half-maximal activity (AC50) above 10 µM.
Same read-out and setting: then `C[C@]12CCC(=O)C=C1CC[C@H]1[C@@H]3CC[C@](O)(C(=O)CO)[C@@]3(C)C[C@H](O)[C@@]12F` [FLUDROCORTISONE], with above 30 µM.
In test [8], `CO[C@@]1(NC(=O)C(C(=O)O)c2ccc(O)cc2)C(=O)N2C(C(=O)O)=C(CSc3nnnn3C)CO[C@@H]21` (stereo partly specified) [MOXALACTAM] yielded a concentration at half-maximal activity (AC50) above 30 µM.
Same read-out and setting: in the case of `OC[C@H]1NC[C@H](O)[C@@H](O)[C@H]1O` it was above 30 µM.
`O=P1(N(CCCl)CCCl)NCCCO1` (stereo unspecified) [CYCLOPHOSPHAMIDE ANHYDROUS] yielded an AC50 in test [7] above 30 µM.
Take `O=C(O)[C@@H](S)[C@@H](S)C(=O)O`: the concentration at half-maximal activity (AC50) in [8] is above 30 µM.
In the case of `CC#CC(=O)N1CCC[C@H]1c1nc(-c2ccc(C(=O)Nc3ccccn3)cc2)c2c(N)nccn12` [ACALABRUTINIB], the half-maximal activity concentration (AC50) in test [8] and in test [7] was above 30 µM in each case.
Turning to `N[C@@H](Cc1cc(I)c(Oc2cc(I)c(O)c(I)c2)c(I)c1)C(=O)O` [LEVOTHYROXINE], the concentration at half-maximal activity (AC50) in test [2], in test [3], in test [4], in test [5] and in test [6] was above 30 µM throughout.
As for `C#CCN(C)Cc1ccccc1` [PARGYLINE], the AC50 in test [3], in test [8], in test [4] and in test [5] was above 30 µM each time.
Consider `CC(C)(Oc1ccc(Cl)cc1)C(=O)NC(=O)NCN1CCOCC1` [PLAFIBRIDE], for which, in test [7], the half-maximal activity concentration (AC50) was above 30 µM.
Molecule `CCCCCCO[C@@H](C)c1cccc(-c2csc(NC(=O)c3cc(Cl)c(/C=C(\C)C(=O)O)c(Cl)c3)n2)c1OC` [LUSUTROMBOPAG] had an AC50 in test [8] above 30 µM.
Regarding `O=C(Cc1cccs1)N[C@@H]1C(=O)N2C(C(=O)[O-])=C(C[n+]3ccccc3)CS[C@H]12` [CEPHALORIDINE], the AC50 in test [3], in test [8], in [4] and in test [5] was above 30 µM each time.
In the case of `CC(=O)NC[C@H]1CN(c2ccc(N3CCOCC3)c(F)c2)C(=O)O1` [LINEZOLID], the AC50 in test [5] was above 30 µM; in test [9], above 50 µM.
Regarding `CNC1(c2ccccc2Cl)CCCCC1=O` (stereo unspecified) [KETAMINE], the half-maximal activity concentration (AC50) in test [7] was above 30 µM.
On to `CC(C)NCC(O)COc1ccc(CC(N)=O)cc1` (stereo unspecified) [ATENOLOL], for which the AC50 in test [1] was above 30 µM.
In test [7], `CC1=C(C/C=C(\C)CCC[C@H](C)CCC[C@H](C)CCCC(C)C)C(=O)c2ccccc2C1=O` [PHYTONADIONE] gave an AC50 above 30 µM.
Consider `CC[N+](CC)(CCNC(=O)C(=O)NCC[N+](CC)(CC)Cc1ccccc1Cl)Cc1ccccc1Cl` [AMBENONIUM], for which the half-maximal activity concentration (AC50) in [5] is 4.3 µM; in [1], above 30 µM.
On to `CCOc1ccccc1OCCN[C@H](C)Cc1ccc(OC)c(S(N)(=O)=O)c1` [TAMSULOSIN], for which, in test [5], the AC50 stood at 3.8 µM.
On to `CCCCCCCC/C=C\CCCCCCCC(=O)O` [OLEIC ACID], for which the results for the AC50 in test [2], in test [7] and in test [6] were above 300 µM, above 30 µM and above 300 µM, respectively.
Consider `NC(=O)C1(N2CCCCC2)CCN(CCCN2c3ccccc3CCc3ccccc32)CC1` [CARPIPRAMINE], for which the concentration at half-maximal activity (AC50) in test [7] is above 30 µM.
Regarding `CS(=O)(=O)Nc1ccc([N+](=O)[O-])cc1Oc1ccccc1` [NIMESULIDE], the concentration at half-maximal activity (AC50) in test [3], in test [4], in [5] and in test [7] was above 30 µM in each case.
Consider `NCCCNCCSP(=O)(O)O` [AMIFOSTINE], for which the AC50 in [5] and in [1] was above 30 µM throughout.
For `CC(C)Nc1cccnc1N1CCN(C(=O)c2cc3cc(NS(C)(=O)=O)ccc3[nH]2)CC1` [DELAVIRDINE], the AC50 in test [7] is above 10 µM.
In the case of `CN(C)CCc1c[nH]c2ccc(CS(=O)(=O)N3CCCC3)cc12` [ALMOTRIPTAN], the AC50 in test [3], in test [4], in test [5] and in test [1] was above 30 µM in each case.
Molecule `CN1CCC(N(Cc2cccs2)c2ccccc2)CC1` [THENALIDINE] returned an AC50 in test [8] above 30 µM.
In turn, `O=C(O)[C@H](O)[C@@H](O)[C@H](O)[C@H](O)CO` [GLUCONIC ACID] had an AC50 in test [7] above 30 µM.
As for `O=C(O)COC(=O)Cc1ccccc1Nc1c(Cl)cccc1Cl` [ACECLOFENAC], in test [1], the concentration at half-maximal activity (AC50) is above 30 µM.
Consider `CC(C)NC[C@H](O)COc1ccc(O)cc1` [PRENALTEROL], for which the concentration at half-maximal activity (AC50) in test [8] and in test [7] was above 30 µM in each case.
On to `CCN(CCO)CCCC(C)Nc1ccnc2cc(Cl)ccc12` (stereo unspecified) [HYDROXYCHLOROQUINE], for which the AC50 in [5] was above 30 µM.
Regarding `Cc1cc(C)cc(OCC2CNC(=O)O2)c1` (stereo unspecified) [METAXALONE], in test [8], the AC50 is above 30 µM.
Turning to `CCOC(=O)Nc1ccc(NCc2ccc(F)cc2)nc1N` [FLUPIRTINE], the AC50 was above 30 µM in [5] and 3 µM in [1].
`Cc1ccc(C(C)C)c(O)c1` [THYMOL] returned a concentration at half-maximal activity (AC50) in test [7] above 30 µM.
`C[C@]12CC[C@@H]3c4ccc(OC(=O)N(CCCl)CCCl)cc4CC[C@H]3[C@@H]1CC[C@@H]2OP(=O)(O)O` [ESTRAMUSTINE PHOSPHATE] gave an AC50 in test [8] above 30 µM.
For `C[C@@H](CN1CC(=O)NC(=O)C1)N1CC(=O)NC(=O)C1` [DEXRAZOXANE], the concentration at half-maximal activity (AC50) in [8] was above 30 µM.
In test [5], `O=C(c1ccccc1)c1ccc2n1CCC2C(=O)O` (stereo unspecified) [KETOROLAC] had a half-maximal activity concentration (AC50) of 0.0013 µM.
Regarding `C[C@H](Cn1cnc2c(N)ncnc21)OCP(=O)(O)O` [TENOFOVIR ANHYDROUS], the half-maximal activity concentration (AC50) in test [5] and in test [1] was above 30 µM each time.
For the molecule `Nc1nnc(-c2cccc(Cl)c2Cl)c(N)n1` [LAMOTRIGINE], in test [9], the AC50 was above 50 µM.

In general, AC50 refers to the midpoint of the concentration-response curve, whichever way the signal moves.
